From patent publication US20090030015A1, “NOVEL MULTI-CYCLIC COMPOUNDS” (REVOTAR BIOPHARMACEUTICALS AG, priority 2005, published 2009)

Experiments:
[1] = biological target: T1, human L-Selectin-IgG-chimera (Homo sapiens, UniProt P14151); assay: Sialyl Lewis X Tyrosine Sulfate Assay (sLex TSA), L-selectin; assay type: binding; details: sLexTSA; for L-Selectin [% inhib.]: in vitro inhibition at 100 μM
T1 construct: fused on or other part: human IgG Fc part, captured on the plate by goat anti human Fc antibody; a tag, no second protein
T1 sequence (P14151 39-318 limits assumed): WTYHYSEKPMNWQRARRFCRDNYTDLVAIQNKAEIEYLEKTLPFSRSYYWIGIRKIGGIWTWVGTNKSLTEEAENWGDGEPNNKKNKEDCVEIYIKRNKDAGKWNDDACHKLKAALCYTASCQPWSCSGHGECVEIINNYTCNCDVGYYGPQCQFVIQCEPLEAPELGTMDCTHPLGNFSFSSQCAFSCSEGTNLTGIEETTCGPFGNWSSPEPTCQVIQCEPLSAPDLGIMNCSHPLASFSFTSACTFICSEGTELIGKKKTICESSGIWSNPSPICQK
Procedure: (§1) Sialyl Lewis^X Tyrosine Sulfate Assay (sLe^x TSA):
(§2) Compounds of the present invention are assayed on a molecular level for their ability to inhibit the binding of P-, L-, or E-selectin chimeric molecules to sLe^x and tyrosinesulfate residues linked to a polymeric matrix as a PSGL-1 substitute. Selected IC50-values are determined.
(§3) Microtiter plates are coated overnight in carbonate buffer pH9.6 with goat anti human Fc mAB (10 μg/ml). After washing in assay buffer (25 mM 4-(2-hydroxyethyl)-1-piperazineethanesulfonic acid (HEPES), 150 mM NaCl, 1 mM CaCl2 pH7.4) and blocking (3% bovine serum albumin (BSA) in assay buffer) plates are incubated for 2 h at 37° C. with human P-Selectin-IgG-chimera (0.61 nM respectively 150 ng/mL) or human L-Selectin-IgG-chimera (0.61 nM respectively 89 ng/mL) or human E-Selectin-IgG-chimera (0.61 nM respectively 131 ng/mL). 5 μl of sLe^x-tyrosine sulfate polyacrylamide (1 mg/ml) carrying 15% sLe^x, 10% Tyrosine-sulfate and 5% biotin is complexed with 20 μl Streptavidin-Peroxidase solution (1 mg/ml) and 25 μl assay buffer without CaCl2. For use in the assay, the ligand complex is diluted 1:10000 in assay buffer and further diluted 1:1 with varying amounts of compounds in assay buffer incl. 2% DMSO. This mixture is added to the wells precoated with E- or P-selectin. After incubation for 2 h at 37° C., wells are washed for six times with in assay buffer incl. 0.005% Polyoxyethylenesorbitan monolaurate (TWEEN 20), developed for 10-15 min with 20 μl 3,3′,5,5′-tetramethylbenzidine (TMB)/H2O2 substrate solution and stopped with 20 μl 1M H2SO4. Bound sLe^x-Tyrosine sulfate ligand complex is determined by measuring optical density at 450 nm vs. 620 nm in a Fusion alpha-FP reader (sold from Packard Bioscience, Dreieich, Germany).

[2] = biological target: T2, human P-Selectin-IgG-chimera (Homo sapiens, UniProt P16109); assay: Sialyl Lewis X Tyrosine Sulfate Assay (sLex TSA), P-selectin; assay type: binding; details: sLexTSA; for P-Selectin [% inhib.]: in vitro inhibition at 100 μM
T2 sequence (P16109 42-771 limits assumed): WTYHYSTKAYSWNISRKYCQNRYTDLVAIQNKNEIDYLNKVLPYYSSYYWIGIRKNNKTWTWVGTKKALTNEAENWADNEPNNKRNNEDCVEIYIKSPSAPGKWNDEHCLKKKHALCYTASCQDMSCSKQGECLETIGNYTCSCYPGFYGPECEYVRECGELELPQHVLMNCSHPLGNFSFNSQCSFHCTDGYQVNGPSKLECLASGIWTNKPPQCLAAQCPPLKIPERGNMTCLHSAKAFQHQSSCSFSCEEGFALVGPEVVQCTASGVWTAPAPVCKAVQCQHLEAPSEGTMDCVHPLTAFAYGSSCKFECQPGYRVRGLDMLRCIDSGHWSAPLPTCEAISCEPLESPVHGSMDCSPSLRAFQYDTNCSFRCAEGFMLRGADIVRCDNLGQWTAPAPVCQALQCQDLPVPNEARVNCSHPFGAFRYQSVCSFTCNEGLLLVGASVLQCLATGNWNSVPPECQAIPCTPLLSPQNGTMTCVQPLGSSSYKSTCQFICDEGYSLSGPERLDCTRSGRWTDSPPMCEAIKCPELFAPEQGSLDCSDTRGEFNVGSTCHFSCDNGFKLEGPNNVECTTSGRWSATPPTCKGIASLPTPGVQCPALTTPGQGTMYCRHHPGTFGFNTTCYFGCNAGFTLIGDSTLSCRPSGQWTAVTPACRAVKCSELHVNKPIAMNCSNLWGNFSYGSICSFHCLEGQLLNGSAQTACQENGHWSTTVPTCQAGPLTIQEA
Procedure: as §1, §2, §3

[3] = biological target: T3, human E-Selectin-IgG-chimera (Homo sapiens, UniProt P16581); assay: Sialyl Lewis X Tyrosine Sulfate Assay (sLex TSA), E-selectin; assay type: binding; details: sLexTSA, in vitro inhibition at 100 μM
T3 construct: fused on or other part: human IgG Fc part, captured on the plate by goat anti human Fc antibody; a tag, no second protein
T3 sequence (P16581 22-175 limits assumed): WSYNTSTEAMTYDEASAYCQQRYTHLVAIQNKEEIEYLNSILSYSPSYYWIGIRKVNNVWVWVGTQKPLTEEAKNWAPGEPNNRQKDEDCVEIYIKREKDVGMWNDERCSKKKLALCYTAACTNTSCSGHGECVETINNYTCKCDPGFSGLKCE
Procedure: as §1, §2, §3

[4] = system: human P-selectin-IgG chimera; assay: Flow chamber assay, cell adhesion and rolling under flow conditions, P-selectin; assay type: cell-based; details: normalized ratio of %-inhibition of compound divided by %-inhibition of bimosiamose; 125 μM compound; HL-60 cells; flow shear 1 dyne/cm^2
Procedure: (§4) Flow Chamber Assay/Cell Adhesion and Rolling Under Flow Conditions
(§5) To assess the capability of compounds to inhibit cell binding under dynamic conditions resembling the flow in a blood vessel, flow chamber assays addressing/testing binding of HL-60 cells/various cell lines to P-selectin, L-selectin and E-selectin chimeric molecules are performed.
(§6) Cell attachment under flow conditions is determined using a parallel flow chamber system. A 35 mm polystyrene culture dish is coated for 1 hour at room temperature with coating buffer (50 mM tris-(hydroxymethyl)aminomethane buffer (Tris), 150 mM NaCl, 2 mM CaCl2; pH 7.4) containing human E- or P-selectin-IgG chimera at concentrations of 2.5 μg/ml or 10 μg/ml, respectively. After removal of the coating solution non specific binding sites are blocked for an additional hour with 1% BSA in coating buffer at room temperature. After washing with assay buffer (“Roswell Park Memorial Institute 1640” (RPMI 1640)+10 mM HEPES) the dish is fitted into a parallel plate laminar flow chamber (sold from Glycotech, Rockville, Md.) and mounted on an inverted phase-contrast microscope (sold from Olympus, Hamburg, Germany) equipped with a CCD camera (JVC) that is connected to a PC. Employing a peristaltic pump (sold from Ismatec, Wertheim-Mondfeld, Germany) the re-circulating system is equilibrated with assay buffer containing 125 μM compound or vehicle control (DMSO). Cells (1 million/ml) are added to the chamber and allowed to distribute for 2 minutes at a high flow rate. The flow rate is then decreased resulting in a calculated flow shear of 1 dyne/cm^2. Video sequences of 10 low power fields are digitally recorded after 5 minutes continuous flow. The percentage of inhibition is calculated from the mean number of cells per field that attached to the coated dish surface in the presence versus absence of compound […].

[5] = system: human E-selectin-IgG chimera; assay: Flow chamber assay, cell adhesion and rolling under flow conditions, E-selectin; assay type: cell-based; details: normalized ratio of %-inhibition of compound divided by %-inhibition of bimosiamose; 125 μM compound; HL-60 cells; flow shear 1 dyne/cm^2
Procedure: as §4, §5, §6

| SMILES | L-Selectin [% inhib.] [1] | P-Selectin [% inhib.] [2] | E-Selectin [% inhib.] [3] | IC50 [1] | P-Selectin [Ratio] [4] | IC50 [2] | E-Selectin [Ratio] [5] |
| --- | --- | --- | --- | --- | --- | --- | --- |
| O=C(CCCNC(=O)c1cc(O)cc(O)c1)Nc1cccc(C(=O)O)c1 [Compound 21, 3-[4-(3,5-Dihydroxy-benzoylamino)-butyrylamino]-benzoic acid] | 18.7 % inhib. | 3.0 % inhib. | 40.7 % inhib. | – | – | – | – |
| COC(=O)c1cccc(NC(=O)CCCNC(=O)c2cc(O)cc(O)c2)c1 [Compound 22, 3-[4-(3,5-Dihydroxy-benzoylamino)-butyrylamino]-benzoic acid methyl ester] | 21.3 % inhib. | 22.7 % inhib. | 42.7 % inhib. | – | – | – | – |
| O=C(O)CN1CCN(C(=O)CCCNC(=O)c2cc(O)cc(O)c2)CC1 [Compound 23, {4-[4-(3,5-Dihydroxy-benzoylamino)-butyryl]-piperazin-1-yl}-acetic acid] | 11.6 % inhib. | 18.9 % inhib. | 10.5 % inhib. | – | – | – | – |
| O=C(CCCNC(=O)c1cc(O)cc(O)c1)Nc1ccc(C(=O)O)cc1 [Compound 24, 4-[4-(3,5-Dihydroxy-benzoylamino)-butyrylamino]-benzoic acid] | 5.9 % inhib. | 0.5 % inhib. | 35.9 % inhib. | – | – | – | – |
| O=C(O)CCc1cccc(NC(=O)CCCNC(=O)c2cc(O)cc(O)c2)c1 [Compound 32] | 13.1 % inhib. | 1.4 % inhib. | 35.0 % inhib. | – | – | – | – |
| COC(=O)CCc1cccc(NC(=O)CCCNC(=O)c2cc(O)cc(O)c2)c1 [Compound 33] | 27.3 % inhib. | 10.6 % inhib. | 38.6 % inhib. | – | – | – | – |
| O=C(O)Cc1cccc(NC(=O)CCCNC(=O)c2cc(O)cc(O)c2)c1 [Compound 34] | 18.1 % inhib. | 12.9 % inhib. | 41.0 % inhib. | – | – | – | – |
| COC(=O)Cc1cccc(NC(=O)CCCNC(=O)c2cc(O)cc(O)c2)c1 [Compound 35] | 19.4 % inhib. | 15.6 % inhib. | 40.8 % inhib. | – | – | – | – |
| Cc1ccc(C(=O)O)cc1NC(=O)CCCNC(=O)c1cc(O)cc(O)c1 [Compound 36] | 6.8 % inhib. | 1.2 % inhib. | 35.8 % inhib. | – | – | – | – |
| COc1ccc(-c2cccc(C(=O)Nc3ccccc3-c3ccc(CC(=O)O)s3)c2)c(OC)c1 [Compound 62, (5-{2-[(2′,4′-Dimethoxy-biphenyl-3-carbonyl)-amino]-phenyl}-thiophen-2-yl)acetic acid] | – | – | – | 151 µM | 1.22 Ratio | 62.9 µM | 1.15 Ratio |
| O=C(O)Cc1ccc(-c2ccccc2NC(=O)c2cccc(-c3ccc(O)cc3O)c2)s1 [Compound 63, (5-{2-[(2′,4′-Dihydroxy-biphenyl-3-carbonyl)-amino]-phenyl}-thiophen-2-yl)acetic acid] | – | – | – | 157 µM | 1.95 Ratio | 81.2 µM | 1.31 Ratio |
| COC(=O)Cc1ccc(-c2ccccc2NC(=O)c2cccc(-c3ccc(O)cc3O)c2)s1 [Compound 64, (5-{2-[(2′,4′-Dihydroxy-biphenyl-3-carbonyl)-amino]-phenyl}-thiophen-2-yl)acetic acid methyl ester] | – | – | – | 62.3 µM | 1.70 Ratio | 50 µM | 1.34 Ratio |
| COc1ccc(-c2cccc(C(=O)Nc3ccccc3-c3ccc(C(=O)O)s3)c2)c(OC)c1 [Compound 66] | – | – | – | 152 µM | 0.76 Ratio | 67.8 µM | 1.21 Ratio |
| O=C(Nc1ccccc1-c1ccc(C(=O)O)s1)c1cccc(-c2ccc(O)cc2O)c1 [Compound 67] | – | – | – | 434 µM | 0.92 Ratio | 201 µM | 1.60 Ratio |
| O=C(O)Cc1ccc(-c2ccccc2NC(=O)Cc2cccc(-c3ccc(O)cc3O)c2)s1 [Compound 70, (5-{2-[2-(2′,4′-Dihydroxy-biphenyl-3-yl)-acetylamino]-phenyl}-thiophen-2-yl)-acetic acid] | – | – | – | – | 0.82 Ratio | 354 µM | 0.83 Ratio |
| O=C(O)Cc1ccc(-c2ccccc2NC(=O)c2cncc(-c3ccc(O)cc3O)c2)s1 [Compound 73, [5-(2-{[5-(2,4-Dihydroxy-phenyl)-pyridine-3-carbonyl]-amino}-phenyl)-thiophen-2-yl]-acetic acid] | – | – | – | 502 µM | 1.20 Ratio | 260 µM | 0.99 Ratio |
| COc1cc(OC)cc(-c2cccc(C(=O)Nc3ccccc3-c3ccc(CC(=O)O)s3)c2)c1 [Compound 81, (5-{2-[(3′,5′-Dimethoxy-biphenyl-3-carbonyl)-amino]-phenyl}-thiophen-2-yl)-acetic acid] | – | – | – | 131 µM | 1.55 Ratio | 35.3 µM | 1.27 Ratio |
| COc1cc(OC)cc(-c2cccc(C(=O)Nc3ccccc3-c3ccc(C(=O)O)s3)c2)c1 [Compound 84, 5-{2-[(3′,5′-Dimethoxy-biphenyl-3-carbonyl)-amino]-phenyl}-thiophene-2-carboxylic acid] | – | – | – | 144 µM | 1.02 Ratio | 46.6 µM | 1.36 Ratio |
